Columns and labels:
[1] = target: human α5β3γ2 receptor (α5-GABAA receptor) (Homo sapiens (Human), UniProt P18507+P31644); assay: Radioligand (3H-flunitrazepam) competition binding assay, BZD site; conditions: 3H-flunitrazepam 1 nM; HEK293 membranes expressing human α5β3γ2
Excerpt: (§1) α, β and γ subunits are essential for the formation of a complete functional GABAA receptor. In this example, HEK293 cell strains stably expressing human α5-GABAA receptor (comprising α5β3γ2 subunit) and α2-GABAA receptor (comprising α2β3γ2 subunit) were constructed and screened, respectively, by liposome transfection method (Felgner, P. L., et al., Proceedings of the National Academy of Sciences, 1987, 84:7413-7417). The specific subunit protein sequences are as follows: α5 subunit (protein sequence can be found in GenBank accession number: NM_000810.3); α2 subunit (protein sequence can be found in GenBank accession number: NM_000807.4); β3 subunit (protein sequence can be found in GenBank accession number: NM_000814.5); γ2 subunit (protein sequence can be found in GenBank accession number: NM_000816.3).
(§2) The above cell lines were subcultured. Amplification of α5β3γ2-HEK293 and α2β3γ2-HEK293 cells was used to test the affinity of the compounds to benzodiazepine site (BZD) of the GABAA receptor. During the passage of α5β3γ2-HEK293 cells, some of the suspended cells were spread on a glass slide pretreated with Poly-D-Lysine for electrophysiological testing.
(§3) Flunitrazepam is a non-specific reagent that binds to the BZD site efficiently. The affinity of the compounds to the BZD sites of the human α5β3γ2 and α2β3γ2 receptors can be determined by competing the compound with ^3H-flunitrazepam (isotope ^3H-labeled flunitrazepam) for binding to these two receptors.
(§4) Membrane preparation: HEK293 cells stably expressing human α5β3γ2 receptor or α2β3γ2 receptor were collected, suspended in 50 mM Tris-HCl buffer (pH=7.4), homogenized on ice by a homogenizer for 20 seconds 10 times, and centrifuged at 4° C., 1000 g for 10 min. The supernatant was collected, and the above steps were repeated. The supernatant was centrifuged (33800 g; centrifuge purchased from Thermo, rotor model: A27-8×50) at 4° C. for 60 min, and the precipitate was resuspended in Tris buffer (50 mM Tris-HCl, 10 mM MgCl2, 0.5 mM EDTA, 10% glycerol). The precipitate was the cell membrane. Protein content was determined by BCA (Bicinchoninic Acid) method (BCA kit from Pierce (Annoron)). The cell membrane was prepared into 1 ml aliquot and stored at −80° C.
(§5) Radioligand competition binding assay: the assay was carried out in a 200 μL system (96-well plate from Agilent) with 100 μL of cell membrane. The concentration of ^3H-flunitazepam (from PerkinElmer, lot: NET567250 UC) was 1 nM and the concentration of test compound was in the range 1×10^−5-10^−6 M. Flumazenil (from Tocris; lot: 1318) was used as a control. 1 μL of 2 mM flumazenil (final concentration 10 μM) was added to the Low signal control well (Low control, LC) and 1 μL of DMSO (from Sigma aldrich, lot: 472301) was added to the High signal control well (High control, HC). The final target membrane protein concentration was 5 μg/well. All test compound sample stocks were 10 mM DMSO solutions. The working concentration of the samples is to dilute all samples with DMSO to 0.2 mM, and then perform 4-fold continuous gradient dilution for a total of 8 concentration gradients. The 96-well plate was sealed with a plate sealing membrane and then incubated on a shaker at room temperature for 1 hour. Meanwhile, GF/C filter plate was soaked with a plate soaking buffer (0.3% PEI, polyethyleneimine, purchased from Sigma aldrich, model: P314, stored at 4° C.) for at least 0.5 hours. After completion of binding incubation, the cells were collected with a cell collector onto the GF/C filter plate and washed four times with a plate washing buffer (50 mM Tris-HCl, pH 7.4, stored at 4° C.). […]

[2] = target: human α2β3γ2 receptor (α2-GABAA receptor) (Homo sapiens (Human), UniProt P18507+P47869); assay: Radioligand (3H-flunitrazepam) competition binding assay, BZD site; α2 vs α5 binding selectivity; conditions: ratio of Ki at α2β3γ2 to Ki at α5β3γ2
Excerpt: as §1, §2, §3, §4, §5

α5-GABAA receptor = α5-GABAA receptor (Homo sapiens (Human), UniProt P18507+P31644); assay: Whole-cell patch clamp electrophysiology, inverse regulation activity in α5β3γ2-HEK293 cells; type: cell-based; conditions: compound 100 nM; GABA 0.05-0.06 μM (about EC7-8); clamped at −60 mV; read-out: Inverse regulation efficiency to α5-GABAA receptor
Excerpt: α, β and γ subunits are essential for the formation of a complete functional GABAA receptor. […] The specific subunit protein sequences are as follows: α5 subunit (protein sequence can be found in GenBank accession number: NM_000810.3); α2 subunit (protein sequence can be found in GenBank accession number: NM_000807.4); β3 subunit (protein sequence can be found in GenBank accession number: NM_000814.5); γ2 subunit (protein sequence can be found in GenBank accession number: NM_000816.3).
as §2
The inverse regulation activity of the test drugs on α5-GABAA receptor was detected by an electrophysiological method. The specific method was as follows:
Compound concentration setting: the final concentration of the compounds used for compound screening was 100 nM. GABA concentration was 0.05-0.06 μM (about EC7-8). […] The extracellular fluid (ECS) ingredients for electrophysiology were as follows: 150 mM NaCl, 5 mM KCl, 2.5 mM CaCl2, 1 mM MgCl2, 10 mM HEPES and 10 mM glucose (pH 7.4); the electrode internal solution (ICS) formula for electrophysiology was as follows: 140 mM CsCl, 11 mM EGTA, 10 mM HEPES, 2 mM CaCl2, 1 mM MgCl2, 4 mM MgATP, 2 mM TEA (pH 7.3). The above reagents were all purchased from Sigma aldrich. GABA (γ-aminobutyric acid, from sigma aldrich, lot: A5385) powder was prepared into a stock solution with pure water and then diluted in ECS. The compound was first prepared into a 4 mM stock solution with DMSO, and then gradually diluted in corresponding concentrations of GABA-ECS. The solutions were all prepared fresh prior to electrophysiological testing.
Electrophysiological signal acquisition were performed by using EPC 10 amplifier and PatchMaster software (HEKA) or Axon 700 B amplifier and Clampex software (AXON). The recording electrode was made by drawing borosilicate glass (purchased from sutter), and has an electrode resistance of 4˜6 MΩ. Extracellular administration was carried out using ALA-VC-8PG (purchased from ALA, USA) system. A single independently grown cell was selected, and lysis was performed after the glass electrode and the cell forming a good seal, to form a whole cell mode. With the cellular membrane potential clamped at −60 mV, recording was carried out in the Gap-free mode. For the test, extracellular fluid was first applied extracellularly for about 20 seconds. After baseline (Iprebaseline) was stabilized, the extracellular fluid was switched to GABA-ECS. At this time, the current (Igaba) caused by GABA can be detected. At about 20-40 seconds, after the current stabilized, the extracellular fluid was switched to a mixed solution of the compound and GABA-ECS, until the current (Itreatment) caused by both the compound and GABA can be detected. Finally, the solution was switched to the extracellular fluid and the test was terminated after recording for 20-40 seconds.
The experimental results were analyzed using PatchMaster v2x90.1 or PatchMaster v2x90.3 software (EPC 10 amplifier) and Clampex10.6 software (Axon700B amplifier). The current value of each stage was calculated according to the average value of the stabilized current under the corresponding conditions. We defined the control current as Igaba−Iprebaseline, and the current after compound treatment as Itreatment−Iprebaseline. The inverse regulation activity of the compounds is expressed as a percentage and is calculated according to the following formula: Inverse regulation efficiency=[(Itreatment−Igaba)/(Igaba−Iprebaseline)]×100%.

[3] = Stability in simulated gastric fluid (SGF); type: physicochemical; conditions: 37° C., 1000 rpm
Procedure: Simulated gastric fluid (SGF), Manufacturer: Dongguan Chuangfeng Automation Technology Co., Ltd.; Product model: CF-006.
Oscillating constant temperature metal bath, Model: Thermo; Manufacturer: Digital Skaking Drybath.
Temperature: 37° C.; rotating speed: 1000 rpm; sampling time: 0, 4 hours.
Chromatographic column: Welch Xtimate C18 3.0×100 mm, 5 μm. Mobile phase: A: 0.04% trifluoroacetic acid (TFA)/H2O (v/v), B: acetonitrile (ACN). Gradient elution was performed according to the following table, flow rate: 1.0 mL/min; injection volume: 5 μL; column temperature: 35° C.; wavelength: 254 nm.
• (a) preparation of 0.04% TFA/H2O: 400 μL of TFA was measured, placed into 1 L of H2O, and homogenously mixed; • (b) Sample stock solution: about 3 mg of test sample was weighed, and prepared into a stock solution of 10 mmol/L using DMSO; • (c) 50 μL of the sample stock solution was taken, placed into a 5 mL volumetric flask, made up to the scale with the addition of SGF, and homogenously mixed. 400 μL of the solution was taken, four samples in parallel, and shaken at 1000 rpm and 37° C.; • (d) every two samples were taken after 0 and 4 hours respectively, 400 μL of acetonitrile was added, and homogenously mixed, followed by liquid phase injection, and calculation of the change % of the main peak area in the solution after 4 hours relative to 0 hour, two average value reports being taken at each time point.

Structure (SMILES)	Ki [1]	Selectivity α2 ki/α5 ki [2]	inhibition at 0.1 µM (α5-GABAA receptor)	Residual content in simulated gastric juice after 4 hours (compared with 0 hour content) [3]
Cc1onc(-c2ccc(F)cc2)c1COc1ccc(-c2nnc3n2CCCOC3)cn1 [Compound 20, 3-(6-((3-(4-fluorophenyl)-5-methylisoxazol-4-yl)methoxy)pyridin-3-yl)-6,7-dihydro-5H,9H-[1,2,4]triazolo[3,4-c][1,4]oxazepane]	11.2 nM	109 folds	45%	–
Cc1nnn(-c2ccc(C(F)F)cc2)c1COc1ccc(-n2cnc(C(F)F)c2)nn1 [WO2020016443A1, Example 15, reference compound]	–	7.67 folds	–	–
Cc1onc(-c2ccc(F)cc2)c1COc1cnc(N2CCN3CCOC[C@@H]3C2)cn1 [Compound 40, (S)-8-(5-((3-(4-fluorophenyl)-5-methylisoxazol-4-yl)methoxy)pyrazin-2-yl) octahydropyrazino [2,1-c][1,4]oxazine]	21.8 nM	–	18%	98% (4 hours)
Cc1ncc(-c2ccc(OCc3c(C)nnn3-c3ccc(C(F)F)cc3)nn2)o1 [WO2020016443A1, Example 6, reference compound]	–	13.2 folds	–	–
Cc1onc(-c2ccc(F)cc2)c1COc1cnc(-c2cnn3c2CCC3)cn1 [Compound 3]	1.66 nM	–	24%	102% (4 hours)
Cc1onc(-c2ccc(F)cc2)c1COc1ccc(-n2nnc3c2CCOC3)cn1 [Compound 50, 1-(6-((3-(4-fluorophenyl)-5-methylisoxazol-4-yl)methoxy)pyridin-3-yl)-1,4,6,7-tetrahydropyran[3,4-d][1,2,3]triazole]	8.63 nM	–	49%	82% (4 hours)
Cc1onc(-c2ccc(F)cc2)c1COc1ccc(N2CCn3c(C)nnc3C2=O)nn1 [Compound 36, 7-(6-((3-(4-fluorophenyl)-5-methylisoxazol-4-yl)methoxy)pyridazin-3-yl)-3-methyl-6,7-dihydro-[1,2,4]triazolo[4,3-a]pyrazin-8(H)-one]	3.39 nM	46.9 folds	45%	–
Cc1cn2c(n1)CN(c1cnc(OCc3c(-c4ccc(F)cc4)noc3C)cn1)CC2 [Compound 46, 3-(4-fluorophenyl)-5-methyl-4-(((5-(2-methyl-5,6-dihydroimidazo [1,2-a]pyrazin-7(8H)-yl)pyrazin-2-yl)oxy)methyl)isoxazole]	3.09 nM	–	21%	87% (4 hours)
Cc1onc(-c2ccc(F)cc2)c1COc1cnc(N2CCn3ccnc3C2)cn1 [Compound 48, 4-(((5-(5,6-dihydroimidazo [1,2-a]pyrazin-7(8H)-yl)pyrazin-2-yl)oxy)methyl)-3-(4-fluorophenyl)-5-methylisoxazole]	68.5 nM	–	25%	88% (4 hours)
Cc1onc(-c2ccc(F)cc2)c1COc1cnc(-c2nnc3n2CCCC3)cn1 [Compound 32, 3-(4-fluorophenyl)-5-methyl-4-(((5-(5,6,7,8-tetrahydro-[1,2,4]triazolo[4,3-a]pyridin-3-yl)pyrazin-2-yl)oxy)methyl)isoxazole]	4.93 nM	–	35%	83% (4 hours)
COc1ncc(-c2ccc(OCc3c(C)nnn3-c3ccc(C(F)F)cc3)nn2)cn1 [WO2020016443A1, Example 3, reference compound]	–	14.5 folds	–	–
Cc1onc(-c2ccc(F)cc2)c1COc1ccc(N2CCN3CCOC[C@@H]3C2)nn1 [Compound 49, (S)-8-[6-((3-(4-fluorophenyl)-5-methylisoxazol-4-yl)methoxy)pyridazin-3-yl] octahydropyrazino[2,1-c][1,4]oxazine]	3.84 nM	–	37%	31% (4 hours)

Source: patent US20250215016A1, “ISOXAZOLE-HETEROCYCLIC DERIVATIVE, PHARMACEUTICAL COMPOSITION AND USE” (SHANGHAI SIMR BIOTECHNOLOGY CO., LTD, priority 2022, published 2025)
